This is an account of results in patent publication US20210161855A1, “5-LIPOXYGENASE ANTAGONISTS” (INSTITUTO DE MEDICINA MOLECULAR JOÃO LOBO ANTUNES, priority 2017, published 2021).

Structures are written as SMILES.

The conditions of data set [1]: mouse, in vivo, iv, 100 mg/kg.
Data set [2] has as its target T1, EP3 (Homo sapiens, UniProt P43115).
T1 sequence (P43115 1-390): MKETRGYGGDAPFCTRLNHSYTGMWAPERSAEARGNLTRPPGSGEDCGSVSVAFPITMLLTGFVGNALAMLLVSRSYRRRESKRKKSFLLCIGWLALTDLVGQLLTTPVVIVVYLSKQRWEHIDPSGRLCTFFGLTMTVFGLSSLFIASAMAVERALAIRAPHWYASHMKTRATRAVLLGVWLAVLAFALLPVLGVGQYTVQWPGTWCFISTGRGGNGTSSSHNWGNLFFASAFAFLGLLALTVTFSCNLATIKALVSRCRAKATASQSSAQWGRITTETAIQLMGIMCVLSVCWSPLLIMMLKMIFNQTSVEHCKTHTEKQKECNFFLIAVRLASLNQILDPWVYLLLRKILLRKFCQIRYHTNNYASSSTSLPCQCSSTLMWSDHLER
Nature of the data set: Prostanoid EP3 receptor antagonism, functional assay. The settings on record: 150 μM. The data set is classed as cell-based.

Data set [3] has as its target EP4 (Homo sapiens, UniProt P35408). Nature of the data set: Prostanoid EP4 receptor activation, functional assay. In kind it is cell-based. The settings on record: 150 μM.
For data set [4], the target named is T2, 5-LO (Homo sapiens, UniProt P09917).
T2 sequence (P09917 1-674): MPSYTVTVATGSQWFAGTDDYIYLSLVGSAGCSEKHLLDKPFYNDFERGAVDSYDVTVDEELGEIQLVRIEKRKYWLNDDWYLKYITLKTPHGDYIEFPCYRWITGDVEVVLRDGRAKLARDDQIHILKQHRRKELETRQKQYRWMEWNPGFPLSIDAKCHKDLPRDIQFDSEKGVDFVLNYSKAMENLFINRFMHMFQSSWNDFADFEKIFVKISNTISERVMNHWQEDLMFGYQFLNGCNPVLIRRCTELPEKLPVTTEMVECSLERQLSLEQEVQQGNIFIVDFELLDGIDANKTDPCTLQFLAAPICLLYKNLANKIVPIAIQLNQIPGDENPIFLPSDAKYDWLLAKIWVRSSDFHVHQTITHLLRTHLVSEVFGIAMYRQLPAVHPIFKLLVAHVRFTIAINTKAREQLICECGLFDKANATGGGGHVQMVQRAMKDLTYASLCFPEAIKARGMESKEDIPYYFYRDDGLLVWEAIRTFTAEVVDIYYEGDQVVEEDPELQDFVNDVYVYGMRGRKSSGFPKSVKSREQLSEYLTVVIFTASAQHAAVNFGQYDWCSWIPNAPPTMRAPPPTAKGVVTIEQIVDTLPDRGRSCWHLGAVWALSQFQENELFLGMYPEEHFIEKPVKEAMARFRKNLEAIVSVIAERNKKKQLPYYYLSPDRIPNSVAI
Nature of the data set: Circular dichroism binding, protein melting curves. Background: Circular dichroism is widely used to follow secondary structure.

For data set [5], the system named is Escherichia coli K12. Nature of the data set: MIC/MBC assay, E. coli. In kind it is cell-based. The settings on record: read-out: Minimum bactericidal concentration. As to the method: Escherichia coli K12 and Staphylococcus aureus ATCC 25923 were grown overnight at 37° C. and re-inoculated in 24-well plates containing 2.5 mL of Luria Bertani medium (LB) to give an optical density of ˜0.01 at 600 nm. Stock solutions of β-lapachone, and lapachol were prepared in DMSO (1% final concentration) and added to the cell suspensions to obtain final concentrations between 5-210 μM. Wells containing a growth control (cell suspensions with 1% DMSO) and a sterile media control were also prepared. The plates were incubated for 18 h at 37° C. and 90 r.p.m. The concentration of compound in the first well in the series that presented no sign of visible growth was reported as the MIC. The OD600 of the cultures was also measured. All the MIC wells were serially diluted in phosphate buffer saline (PBS) and plated onto LB agar plates.

Data set [6] concerns the target Phosphodiesterase 5 (PDE5) (Homo sapiens, UniProt O76074). Nature of the data set: Phosphodiesterase 5 assay (Cerep). Particulars: 2 μM. In kind it is biochemical. As for the experimental part: Phosphodiesterase 5 (PDE5) assay was performed at Cerep, SA (Celle l'Evescault, France) on a fee-for-service basis (Ref 0204^39), as described in Table 2. [table]
Data set [7] has as its system HL-60. Particulars: cited from earlier work.
The target of data set [8] is T3, 5-lipoxygenase (5-LO) (Homo sapiens, UniProt P09917).
T3 sequence (P09917 1-674): T2 sequence (P09917 1-674)
Put plainly: 5-LO inhibition assay, Method A (Cerep), cell-free functional. In kind it is biochemical. As for the experimental part: Method A: 5-Lipoxygenase (5-LO), 12-lipoxygenase (12-LO) and 15-lipoxygenase-2 (15-LO-2) inhibition assays were performed at Cerep, SA (Celle l'Evescault, France) on a fee-for-service basis (Ref 0772^36, 0883^37 and 0893^38, respectively), as described in Table 1.

Chain of EP4 (P35408 whole entry): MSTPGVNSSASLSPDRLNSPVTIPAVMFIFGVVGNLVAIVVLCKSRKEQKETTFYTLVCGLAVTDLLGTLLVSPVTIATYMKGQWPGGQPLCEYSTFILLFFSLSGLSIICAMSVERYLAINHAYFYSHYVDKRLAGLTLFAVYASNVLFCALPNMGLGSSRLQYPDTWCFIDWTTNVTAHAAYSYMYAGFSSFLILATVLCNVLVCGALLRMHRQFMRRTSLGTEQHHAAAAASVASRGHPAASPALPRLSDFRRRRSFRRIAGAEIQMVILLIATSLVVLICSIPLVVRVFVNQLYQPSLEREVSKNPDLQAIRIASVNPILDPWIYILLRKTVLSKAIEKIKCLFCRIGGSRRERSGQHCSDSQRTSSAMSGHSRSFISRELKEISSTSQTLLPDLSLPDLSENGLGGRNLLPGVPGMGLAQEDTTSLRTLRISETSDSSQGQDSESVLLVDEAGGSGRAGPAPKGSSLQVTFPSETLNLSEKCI

The term Kd denotes the concentration at which binding is half-saturated. One may read the GI50 as the concentration that inhibits growth by half. Broadly, the IC50 is the midpoint of a concentration-inhibition curve. Low values mean greater potency in that assay, high ones weaker potency in that assay. As to `CC1(C)CCC2=C(O1)c1ccccc1C(=O)C2=O` [Compound 1, 3,4-dihydro-2,2-dimethyl-2H-naphtho[1,2-b]pyran-5,6-dione], the “Toxicity at higher doses” value in data set [1] is reported as “toxicity”. The EP3 antagonist effect in data set [2] is reported as 95%. This compound also yielded an EP4 activation in data set [3] of 53%. For the same compound, binding in data set [4] was put at a Kd of 5700 nM. Besides, the MBC in data set [5] is greater than 200 µM. Also, the PDE5 screening outcome in data set [6] is given as “inactivity”. In addition, the pGI50 z-score in data set [7] (NCI-60, z-transformed pGI50) is given as 2.38. For the same compound, the GI50 in data set [7] (NCI-60) was 62.4 nM. Also, the “Ligand efficiency (LE), 5-LO” value in data set [8] (from IC50 2.1 μM) is 0.44. For the same compound, the inhibition at 150 µM in data set [8] (read-out: 5-LO inhibition at the assayed concentration) is 96%. Also, the IC50 in data set [8] (reducing conditions) is 2100 nM.
